Assay results published in patent publication US7932281B2, “Amine-based compound and use thereof” (Kureha Corporation, priority 2004, dated 2011).

Columns and labels:
[1] = system: HIV-1IIIB infected MT-4 cells; assay: Anti-HIV activity, HIV-1IIIB infected MT-4 cells, MTT method (Test Example 1); assay type: cell-based; settings: Human immunodeficiency virus 1, MT4, 120 h, concentration required for inhibition of cell disorder due to HIV infection by 50%, MOI 0.01, 5 days
Method: Immediately after infection, HIV-1IIIB infected MT-4 cells (3.0×10^4/well, MOI (Multiplicity of infection): 0.01) were added to a 96-well microtiter plate together with the test compounds having different concentrations. The cells were cultured in a carbon dioxide incubator at 37° C. for 5 days, and the number of living cells was measured in accordance with the MTT (tetrazolium) method ([…], et al., J. of Virol. Method, 20, 309-321 […]). The antiviral activity is represented by the concentration required for inhibition of cell disorder due to HIV infection by 50% (EC50: 50% Effective Concentration) (μM), and the results are shown in Table 2.

[2] = biological target: T1, CXCR4 (Homo sapiens, UniProt P61073); assay: Inhibition of 125I-SDF-1α binding to receptors CXCR4 on MT-4 cells (Test Example 2); settings: binding-inhibition % at 0.01 μM, 2 hours under ice-cooling, read-out: Inhibition rate (%)
T1 construct: endogenous in cells; host or cells: MT-4 cells
T1 sequence (P61073 whole entry): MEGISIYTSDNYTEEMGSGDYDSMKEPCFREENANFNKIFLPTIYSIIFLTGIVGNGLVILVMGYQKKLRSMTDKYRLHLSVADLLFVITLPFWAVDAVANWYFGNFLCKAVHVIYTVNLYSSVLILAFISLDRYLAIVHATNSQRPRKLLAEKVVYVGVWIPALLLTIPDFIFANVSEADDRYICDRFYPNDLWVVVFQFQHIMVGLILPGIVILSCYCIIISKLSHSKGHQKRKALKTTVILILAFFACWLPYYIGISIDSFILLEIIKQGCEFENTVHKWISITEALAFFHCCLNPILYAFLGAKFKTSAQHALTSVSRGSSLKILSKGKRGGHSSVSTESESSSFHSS
Method: MT-4 cells (5×10^6/0.2 ml/well) were cultured on a 24-well microtiter plate. After the cells were incubated for 24 hours at 37° C. in a carbon dioxide gas incubator, a culture medium was replaced with a buffer solution (0.1% BSA-containing RPMI-1640). Together with a ligand ^125I-SDF-1α (specific activity: 2,200 Ci/mmol; available from Daiichi Pure Chemicals Co., Ltd. (Tokyo)), test materials with various concentrations were subjected to a binding reaction for 2 hours under ice-cooling. […] Then, a rate of inhibition of the binding between radioactive ligands and receptors CXCR4 by a test material was calculated (a binding-inhibition % at 0.01 μM).

[3] = system: SD mice; assay: Acute toxicity, single transvenous administration (Test Example 3); assay type: in vivo; settings: 6-week-old male SD mice, 2.5 mg/kg transvenously once in physiological saline
Method: The aforementioned compound was examined for acute toxicity. Specifically, 6-week-old SD mice (male) were divided into several groups (2 to 3 mice in each group). Subsequently, each of the compounds of Examples was dissolved in a physiological saline solution, and the solution was transvenously administered to the mice (dose: 2.5 mg/kg) once. Then, the number of dead mice was counted.

SMILES | EC50 [1] [nM] | inhibition at 0.01 µM [2] [%] | Dead mice/test mice [3]
CCCN(CCC)CCCCN(CCO)Cc1ccc(CN(Cc2ncc[nH]2)Cc2nccn2C)cc1 [Compound No. 1, 2-[(4-dipropylamino-butyl)-(4-{[(1H-imidazol-2-ylmethyl)-(1-methyl-1H-imidazol-2-ylmethyl)-amino]-methyl}-benzyl)-amino]-ethanol] | 3 | 87.9 | 0/3
CCCN(CCC)CCCCc1nc2ccc(CN(Cc3ncc[nH]3)Cc3ncc[nH]3)cc2n1CCC [Compound No. 3, [4-(6-{[bis-(1H-imidazol-2-ylmethyl)-amino]-methyl}-1-propyl-1H-benzimidazol-2-yl)-butyl]-dipropyl-amine] | 3 | 71.4 | 0/3
CCCN(CCC)CCCCc1nc2ccc(CN(Cc3ncc[nH]3)Cc3nccn3C)cc2n1CCC [Compound No. 4, [4-(6-{[(1H-imidazol-2-ylmethyl)-(1-methyl-1H-imidazol-2-ylmethyl)-amino]-methyl}-1-propyl-1H-benzimidazol-2-yl)-butyl]-dipropyl-amine] | 3 | 94.9 | 0/3
CCCN(CCC)CCCCc1nc2cc(CN(Cc3ncc[nH]3)Cc3nccn3C)ccc2n1CCC [Compound No. 5, [4-(5-{[(1H-imidazol-2-ylmethyl)-(1-methyl-1H-imidazol-2-ylmethyl)-amino]-methyl}-1-propyl-1H-benzimidazol-2-yl)-butyl]-dipropyl-amine] | 9 | 67 | 0/3
CCCN(CCC)CCCCN(C)Cc1ccc(CNCc2nccn2Cc2nccn2C)cc1 [Compound No. 10] | 9 | 20.4 | 0/3
CCCN(CCC)CCCCc1nc2ccc(CN(Cc3ncc[nH]3)Cc3nccn3C)cc2n1C [Compound No. 13, [4-(6-{[(1H-imidazol-2-ylmethyl)-(1-methyl-1H-imidazol-2-ylmethyl)-amino]-methyl}-1-methyl-1H-benzimidazol-2-yl)-butyl]-dipropyl-amine] | 3 | 75.5 | 0/3
CCCN(CCC)CCCC1NC(=O)c2ccc(CN(Cc3ncc[nH]3)Cc3nccn3C)cc2NC1=O (stereo not shown) [Compound No. 14, 3-(3-dipropylaminopropyl)-8-{[(1H-imidazol-2-ylmethyl)-(1-methyl-1H-imidazol-2-ylmethyl)-amino]-methyl}-3,4-dihydro-1H-benzo[e][1,4]diazepin-2,5-dione] | 6 | 32.9 | 0/3
CCCN(CCC)Cc1ccc(NC(=O)c2ccc(CN(Cc3ncc(C)cc3C)Cc3nccn3C)cc2)cc1 [Compound No. 15, 4-{[(3,5-dimethyl-pyridin-2-ylmethyl)-(1-methyl-1H-imidazol-2-ylmethyl)-amino]-methyl}-N-(4-dipropylaminomethyl-phenyl)-benzamide] | 6 | 74 | 0/3
CCCN(CCC)Cc1ccc(NC(=O)c2ccc(CN(Cc3ccc(CC)cn3)Cc3nccn3C)cc2)cc1 [Compound No. 16, 4-{[(5-ethyl-pyridin-2-ylmethyl)-(1-methyl-1H-imidazol-2-ylmethyl)-amino]-methyl}-N-(4-dipropylaminomethyl-phenyl)-benzamide] | 3 | 46.9 | 0/3
CCCN(CCC)CCCCN1CCc2cc(CN(Cc3ncc[nH]3)Cc3nccn3C)ccc2C1 [Compound No. 17, [4-(6-{[(1H-imidazol-2-ylmethyl)-(1-methyl-1H-imidazol-2-ylmethyl)-amino]-methyl}-3,4-dihydro-1H-isoquinolin-2-yl)-butyl]-dipropyl-amine] | 3 | 93.5 | 0/3
CCCN(CCC)CCCCNC(=O)c1ccc(CN(Cc2ccc(C)cn2)Cc2nccn2C)cc1 [Compound No. 20, N-(4-dipropylamino-butyl)-4-{[(1-methyl-1H-imidazol-2-ylmethyl)-(5-methyl-pyridin-2-ylmethyl)-amino]-methyl}-benzamide] | 4 | 73.2 | 0/3
CCCN(CCC)CCCCN(Cc1ccc(CN(Cc2ncc[nH]2)Cc2nccn2C)cc1)S(C)(=O)=O [Compound No. 21, N-(4-dipropylamino-butyl)-N-(4-{[(1H-imidazol-2-ylmethyl)-(1-methyl-1H-imidazol-2-ylmethyl)-amino]-methyl}-benzyl)-methanesulfonamide] | 46 | 59.2 | 0/3
CCCN(CCC)CCCCN(Cc1ccc(CN(Cc2ncc[nH]2)Cc2nccn2C)cc1)S(=O)(=O)c1ccc(C)cc1 [Compound No. 22, N-(4-dipropylamino-butyl)-N-(4-{[(1H-imidazol-2-ylmethyl)-(1-methyl-1H-imidazol-2-ylmethyl)-amino]-methyl}-benzyl)-4-methyl-benzenesulfonamide] | 106 | 84.3 | 0/3
CCCN(CCC)CCCCN(CC)Cc1ccc(CN(Cc2ncc[nH]2)Cc2nccn2C)cc1 [Compound No. 23, N-ethyl-N-(4-{[(1H-imidazol-2-ylmethyl)-(1-methyl-1H-imidazol-2-ylmethyl)-amino]-methyl}-benzyl)-N′,N′-dipropyl-butane-1,4-diamine] | 3 | 78.2 | 0/3
CCCN(CCC)CCOCCN(C)Cc1ccc(CN(Cc2ncc[nH]2)Cc2nccn2C)cc1 [Compound No. 109, (2-{2-[(4-{[(1H-imidazol-2-ylmethyl)-(1-methyl-1H-imidazol-2-ylmethyl)-amino]-methyl}-benzyl)-methyl-amino]-ethoxy}-ethyl)-dipropyl-amine] | 4 | 94.3 | 
CCCN(CCC)CCCCN(Cc1ccc(CN(Cc2ncc[nH]2)Cc2nccn2C)cc1)Cc1nnn[nH]1 [Compound No. 110, N-(4-{[(1H-imidazol-2-ylmethyl)-(1-methyl-1H-imidazol-2-ylmethyl)-amino]-methyl}-benzyl)-N′,N′-dipropyl-N-(1H-tetrazol-5-ylmethyl)-butane-1,4-diamine] | 4 | 71.4 | 
CCCN(CCC)CCCCN(C)C(C(=O)OCC)c1ccc(CN(Cc2ncc[nH]2)Cc2nccn2C)cc1 (stereo not shown) [Compound No. 119, [(4-dipropylamino-butyl)-methyl-amino]-(4-{[(1H-imidazol-2-ylmethyl)-(1-methyl-1H-imidazol-2-ylmethyl)-amino]-methyl}-phenyl)-acetic acid ethyl ester] | 4 | 72.7 | 
CCCN(CCC)CCCCN(C)C(C(=O)O)c1ccc(CN(Cc2ncc[nH]2)Cc2nccn2C)cc1 (stereo not shown) [Compound No. 120, [(4-dipropylamino-butyl)-methyl-amino]-(4-{[(1H-imidazol-2-ylmethyl)-(1-methyl-1H-imidazol-2-ylmethyl)-amino]-methyl}-phenyl)-acetic acid] | 4 | 79.7 | 
CCCN(CCC)CCCCN(C)Cc1ccc(CN(Cc2ncc[nH]2)Cc2nccn2C)cc1C(=O)O [Compound No. 122, 2-{[(4-dipropylamino-butyl)-methyl-amino]-methyl}-5-{[(1H-imidazol-2-ylmethyl)-(1-methyl-1H-imidazol-2-ylmethyl)-amino]-methyl}-benzoic acid] | 4 | 71.3 | 
